# Key:
# [1] = Clearance in Sprague-Dawley rat at 1 mg/kg, iv and 5 mg/kg, po; format: ADME, organism-based; details: in vivo
# [2] = Half life in Sprague-Dawley rat at 1 mg/kg, iv and 5 mg/kg, po; format: ADME, organism-based; details: in vivo
# Histamine H3 receptor [3] = target: Histamine H3 receptor (Rattus norvegicus, UniProt Q9QYN8); assay: Displacement of [3H]NAMH from rat cloned […] expressed in CHO cells; format: cell-based
# Histamine H3 receptor [4] = target: Histamine H3 receptor (Homo sapiens, UniProt Q9Y5N1); assay: Displacement of [3H]NAMH from human cloned […] expressed in CHO cells; format: cell-based
# Chain of Histamine H3 receptor (Homo sapiens, UniProt Q9Y5N1) (Q9Y5N1 whole entry): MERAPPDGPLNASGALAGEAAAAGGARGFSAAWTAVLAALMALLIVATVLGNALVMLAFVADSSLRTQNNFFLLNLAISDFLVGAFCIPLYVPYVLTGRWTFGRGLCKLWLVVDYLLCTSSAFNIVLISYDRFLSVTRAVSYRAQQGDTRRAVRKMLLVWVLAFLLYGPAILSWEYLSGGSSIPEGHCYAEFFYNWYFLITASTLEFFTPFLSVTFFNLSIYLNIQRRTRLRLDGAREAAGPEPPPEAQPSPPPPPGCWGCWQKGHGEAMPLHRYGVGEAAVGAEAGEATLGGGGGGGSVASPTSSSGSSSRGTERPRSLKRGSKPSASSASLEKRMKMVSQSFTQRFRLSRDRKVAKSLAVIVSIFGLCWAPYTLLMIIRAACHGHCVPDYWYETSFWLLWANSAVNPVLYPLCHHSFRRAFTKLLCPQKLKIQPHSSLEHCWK
# [5] = Oral bioavailability in Sprague-Dawley rat at 5 mg/kg; format: ADME, organism-based; details: in vivo
# [6] = Ratio of drug level in brain to plasma in Sprague-Dawley rat at 10 mg/kg, ip after 1 hr; format: ADME, organism-based; parameters: dose 10 mg/kg, route intraperitoneal; details: brain and plasma, read-out: BPR
# Chain of Histamine H3 receptor (Rattus norvegicus, UniProt Q9QYN8) (Q9QYN8 whole entry): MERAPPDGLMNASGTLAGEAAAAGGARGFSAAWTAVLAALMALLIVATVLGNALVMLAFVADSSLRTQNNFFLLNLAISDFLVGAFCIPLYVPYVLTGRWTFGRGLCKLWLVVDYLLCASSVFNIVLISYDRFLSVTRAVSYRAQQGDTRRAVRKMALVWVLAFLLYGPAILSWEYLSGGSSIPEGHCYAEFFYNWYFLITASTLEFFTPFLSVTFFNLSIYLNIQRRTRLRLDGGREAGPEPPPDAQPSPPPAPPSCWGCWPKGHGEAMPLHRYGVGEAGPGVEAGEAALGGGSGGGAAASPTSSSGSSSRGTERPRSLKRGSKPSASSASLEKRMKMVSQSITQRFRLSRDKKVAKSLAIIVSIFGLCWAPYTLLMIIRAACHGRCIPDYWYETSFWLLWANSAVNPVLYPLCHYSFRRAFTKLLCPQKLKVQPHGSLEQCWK
Structure (SMILES),clearance [1],half-life [2],Ki (Histamine H3 receptor [3]),Ki (Histamine H3 receptor [4]),bioavailability [5],Kp at 1 h [6]
Cc1cccnc1-n1nc(C)c(-c2ccc(OCCCN3CCC[C@H]3C)cc2)cc1=O,7 mL/min/kg,84 min,17 nM,3 nM,20%,0.5
O=c1cc(-c2ccc(OCCCN3CCCCC3)cc2)cn[nH]1,24 mL/min/kg,96 min,28 nM,19 nM,42%,3
C[C@H]1CCCN1CCCOc1ccc(-c2cnn(-c3ccccn3)c(=O)c2)cc1,45 mL/min/kg,168 min,,,52%,1.7
C[C@@H]1CCCN1CCCOc1ccc(-c2cn[nH]c(=O)c2)cc1,,,,,,1.8
O=c1cc(-c2ccc(OCCCN3CCCCC3)cc2)cnn1-c1ccccn1,11 mL/min/kg,96 min,16 nM,7.8 nM,26%,1.6

# Second part, the compound after the results:
clearance [1],half-life [2],Ki (Histamine H3 receptor [3]),Ki (Histamine H3 receptor [4]),bioavailability [5],Kp at 1 h [6],Structure (SMILES)
67 mL/min/kg,72 min,6.5 nM,2 nM,53%,1.7,Cc1nn(C)c(=O)cc1-c1ccc(OCCCN2CCC[C@H]2C)cc1
23 mL/min/kg,132 min,4.4 nM,1.8 nM,12%,1,Cc1cccc(-n2ncc(-c3ccc(OCCCN4CCC[C@H]4C)cc3)cc2=O)n1
32 mL/min/kg,60 min,5.5 nM,1.9 nM,19%,3.3,C[C@@H]1CCCN1CCCOc1ccc(-c2cnn(C)c(=O)c2)cc1
25 mL/min/kg,108 min,12 nM,5.3 nM,28%,1.8,O=c1cc(-c2ccc(OCCCN3CCCCCC3)cc2)cnn1-c1ccccn1
13 mL/min/kg,78 min,5 nM,1.7 nM,15%,0.7,Cc1nn(-c2ccccn2)c(=O)cc1-c1ccc(OCCCN2CCC[C@H]2C)cc1

# Source: ChEMBL document CHEMBL1955733, “Optimization of 5-pyridazin-3-one phenoxypropylamines as potent, selective histamine H₃ receptor antagonists with potent cognition enhancing activity” (J Med Chem, 2012)
